Test results: paper PMC3479139, “Diverse Small Molecule Inhibitors of Human Apurinic/Apyrimidinic Endonuclease APE1 Identified from a Screen of a Large Public Collection” (PLoS ONE, 2012)
Read-outs that look alike come from different tables or passages of the source.

Experiments:
APE1 [1] = molecular target: T1, APE1 (Homo sapiens, UniProt P27695); assay: Gel-based APE1 incision assay with fluorescence (TAMRA) detection; type: biochemical
T1 construct: made in house
Experimental: To test the compounds’ inhibitory activity after the primary screen, two assays designed to monitor the cleavage of substrate to product through electrophoretic separation were utilized. The radiotracer incision assay, utilizing a ^32P-labeled substrate, was performed essentially as described [21], [31], [32]. Incision reactions utilizing ^32P-labeled substrate were carried out for 5 min at 37°C. After the addition of an equal volume of stop buffer (0.05% bromophenol blue and xylene cyanol, 20 mM EDTA, 95% formamide), the substrate and product were separated on a standard polyacrylamide denaturing gel and quantified by PhosphorImager analysis [32]. […] APE1 cleavage of the substrate results in a 18-mer TAMRA-labeled fragment which was separated by a non-denaturing polyacrylamide gel electrophoresis and quantitated in a Gel Doc XR imaging system, BioRad (Hercules, CA). The advantage of this assay is that it can be used in a relatively high throughput mode with the inhibitors tested at a range of concentrations (0.17 µM to 125 µM was used here). APE1 (0.15 nM) was added to a reaction mixture of 20 µL containing assay buffer (40 mM HEPES pH 7.5, 50 mM NaCl, 1 mM MgCl2 and 2 mM DTT), and labeled ds DNA substrate (final 75 nM). The mixture was incubated at RT for 15 min, and the reaction was stopped by the addition 20 µL of 2X dye stop solution (10% glycerol, 20 mM EDTA and bromophenol blue). Then 10 µL of the mixture was resolved on 20% polyacrylamide gel in 1X Tris-borate EDTA running buffer at 250 V for 40 min.
To eliminate false positive hits, all 595 confirmed molecules were tested for their ability to inhibit APE1 incision activity using biochemical assays that involve electrophoretic separation of the substrate and cleavage product.

E. coli Endo IV = molecular target: T2, E. coli Endo IV (Escherichia coli, UniProt P0A6C1); assay: E. coli Endo IV profiling counterscreen; type: biochemical; conditions: for IC50: read-out: EndoIV IC50;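 on all read-outs here: selectivity counterscreen of candidate APE1 inhibitors against the bacterial endonuclease Endo IV, run in the same assay format as the primary APE1 high-throughput screen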
T2 construct: made in house
Text: In order to screen out nonselective compounds, such as non-specific DNA binders and inhibitors of related enzymes, we used a miniaturized ThO DNA displacement assay and a counterscreen against the bacterial endonuclease E. coli Endo IV, respectively, following the previously published protocols [21].
To probe the selectivity of the candidate APE1 inhibitors, we tested them against E. coli EndoIV [36], employing the same assay as used in the HTS.

APE1 [2] = molecular target: T1, APE1; assay: Fluorogenic kinetic qHTS APE1 incision assay (primary screen and retest of cherrypicked samples); type: biochemical;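 further: purified APE1 cleaving a fluorophore/dark-quencher labelled 17-mer duplex DNA bearing a tetrahydrofuran AP site, fluorescence rise followed kinetically over the first 2 min, inhibition normalized to controls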
Experimental: All screening operations were performed on a fully integrated robotic system (Kalypsys, San Diego, CA) [28] with library plates screened proceeding from the lowest to the highest concentration to minimize compound carryover [26]. Vehicle-only plates, with DMSO being pin-transferred to the entire column 5–48 compound area, were included regularly throughout the screen in order to record any systematic shifts in assay signal. During the screen, reagent bottles were kept at 4°C and all liquid lines were covered with aluminum foil to minimize degradation.
Screening data were corrected and normalized, and concentration–effect relationships was derived using in-house developed algorithms [25].
To screen for inhibitors of APE1 incision activity, we employed a purified-enzyme biochemical assay with a model substrate featuring a red-shifted fluorescent reporter in combination with a dark non-emitting quencher. These moieties were incorporated as end labels onto a 17-mer double-stranded DNA fragment containing a centrally-located tetrahydrofuran AP site sugar mimetic, which serves as the APE1 cleavage site. Upon APE1-catalyzed strand scission immediately 5′ to the AP site analog, the shortened oligodeoxynucleotide carrying the fluorescent reporter spontaneously dissociates from the rest of the substrate, leading to an increase in fluorescence due to its spatial separation from the dark quencher (Figure 1A).
Using a high-speed whole-plate fluorescence imager, the assay data for the entire screen was conducted in kinetic mode, with the APE1 incision reaction being monitored over the initial linear time frame of 2 min (Figure 1B). Thus, any inhibition associated with each sample was computed from the alteration in fluorescence intensity over the time-course measurement period, after normalization against the appropriate controls (Figure 1B, inset).

APE1 [3] = molecular target: T1, APE1; assay: Fluorescence polarization (FP) displacement assay of APE1 binding to AP-DNA probe; conditions: read-out: FP IC50;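 further: TAMRA 5′-labeled duplex DNA with THF abasic site (5 nM) and APE1 (20 nM), Mg2+-free buffer, 15 min at room temperature, inhibition seen as lowered polarization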
[4] = molecular target: double-stranded 17-mer DNA fragment; assay: ThO (Thiazole Orange) DNA displacement assay; type: binding;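 further: miniaturized displacement of the intercalating dye from unlabeled duplex DNA, used to flag nonspecific DNA binders, chiefly intercalators, groove binders may be missed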
APE1 [5] = molecular target: T1, APE1; assay: Gel-based radiotracer (32P) APE1 incision assay; type: biochemical; parameters: concentration or dose not given beside the values; conditions: percent incision shown; entries 1-112;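 further: APE1 incision reactions ran 5 min at 37 °C, with cleaved product and intact substrate resolved electrophoretically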
[6] = estimated IC50, fluorophore detection, entries 113-223, read-out: F-PAGE Assay IC50
[7] = initial quantitative high-throughput screen, read-out: APE1 qHTS IC50
[8] = retest of cherrypicked sample, read-out: APE1 Retest IC50
[9] = entries 113-223: fluorophore detection, estimated IC50, read-out: Gel-based electrophoretic separation assay with fluorophore detection, estimated IC50 (column headed Radiotracer Assay (%Activity))

T1 sequence (P27695 whole entry): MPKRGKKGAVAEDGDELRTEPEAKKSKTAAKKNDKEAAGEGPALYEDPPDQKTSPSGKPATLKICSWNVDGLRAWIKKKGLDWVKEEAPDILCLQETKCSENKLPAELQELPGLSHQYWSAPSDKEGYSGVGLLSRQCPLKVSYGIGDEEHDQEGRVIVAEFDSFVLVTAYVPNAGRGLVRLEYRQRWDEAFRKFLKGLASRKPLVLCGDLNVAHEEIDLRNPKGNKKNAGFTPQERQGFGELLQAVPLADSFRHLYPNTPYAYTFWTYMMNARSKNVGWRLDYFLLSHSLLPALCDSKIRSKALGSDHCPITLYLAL

Row | Molecule | IC50 (APE1 [1]; [6]) [µM] | IC50 (E. coli Endo IV) [µM] | IC50 (APE1 [2]; [7]) [µM] | IC50 (APE1 [2]; [8]) [µM] | IC50 (APE1 [3]) [µM] | IC50 ([4]; read-out: ThO-DNA binding IC50) [µM] | IC50 (APE1 [1]; [9]) [µM] | Concentration response against EndoIV (E. coli Endo IV) | IC50 ([4]; read-out: ThO dye displacement IC50) [µM] | Radiotracer Assay (%Activity) (APE1 [5]) [%] | ThO assay signal behaviour (autofluorescence interference) [4]
1 | COc1ccc(S(=O)(=O)N2CCOCC2)cc1NC(=O)c1cccc(-n2cccc2)c1 [MLS001161521] | 4.5 | > 57 | 3.8 | 7.3 | > 57 | > 57 | – | – | – | – | –
2 | O=C(CSc1nnc(Nc2ccccc2F)s1)NC(=O)CN1CCCC1=O [MLS002163634] | 8.9 | > 57 | 10.6 | 10.2 | 18.2 | > 57 | – | – | – | – | –
3 | COc1cc(-c2nnc(COC(=O)c3ccc(C)o3)o2)cc(OC)c1OC [MLS001139127] | – | > 57 | 23.8 | 32.4 | > 57 | > 57 | 14.1 | – | – | – | –
4 | CCOc1ccc(NC(=O)c2cccc(-n3cccc3)c2)cc1S(=O)(=O)N1CCOCC1 [MLS002164959] | 2.8 | > 57 | 1.3 | 11.5 | > 57 | > 57 | – | – | – | – | –
5 | COc1ccc(NC(=O)CN(C)C(=O)c2cc3c(s2)CCC3)cc1 [MLS001081306] | 0.1 | > 57 | 1.9 | 7.3 | > 57 | 40.8 | – | – | – | – | –
6 | NS(=O)(=O)c1cc(C(=O)NC2CCSc3ccccc32)ccc1Cl (stereo not drawn) [MLS001233727] | 0.1 | > 57 | 0.1 | 0.3 | > 57 | > 57 | – | – | – | – | –
7 | CC1(C)CC2CC(C)(CN2C(=O)COC(=O)c2ccc(O)cc2O)C1 (stereo not drawn) [MLS002251953] | – | > 57 | 10.6 | 14.5 | > 57 | > 57 | 15.8 | – | – | – | –
8 | O=C(O)c1ccc(-c2ccc(/C=c3/sc4nc5ccccc5n4c3=O)o2)cc1Cl [MLS001196440] | 7.1 | > 57 | 9.5 | 7.3 | > 57 | 40.8 | – | – | – | – | –
9 | Cn1cnnc1SCC(=O)Nc1ncc([N+](=O)[O-])s1 [MLS002252055] | 5 | > 57 | 8.4 | 6.5 | > 57 | 40.8 | – | – | – | – | –
10 | O=C1C=C(c2ccc3cc[nH]c3c2)C[C@@H](c2ccc3c(c2)OCO3)C1 [MLS001060910] | 3.2 | > 57 | 11.9 | 18.2 | > 57 | > 57 | – | – | – | – | –
11 | O=C(O)C1CCCCC1C(=O)Nc1cccc(Br)c1 (stereo not drawn) [MLS002152987] | 0.9 | > 57 | 0.5 | 5.1 | > 57 | > 57 | – | – | – | – | –
12 | NS(=O)(=O)c1ccc(N=Nc2ccc(=O)[nH]c2O)cc1 [MLS000738241] | 3.5 | > 57 | 7.5 | 12.9 | > 57 | > 57 | – | – | – | – | –
13 | NC(=O)c1ccc(NC(=O)COC(=O)c2cc3c(s2)CCC3)cc1 [MLS002251079] | 3.5 | > 57 | 3 | 12.9 | 18.2 | > 57 | – | – | – | – | –
14 | N#Cc1c(NC(=O)COC(=O)c2ccc(O)cc2O)sc2c1CCC2 [MLS001159876] | – | > 57 | 11.9 | 18.2 | > 57 | 11.5 | 11.2 | – | – | – | –
15 | COc1ccc(S(=O)(=O)N2CCN(C(=O)c3cc4c(s3)CCC4)CC2)cc1 [MLS002248682] | 2 | > 57 | 2.7 | 8.1 | > 57 | > 57 | – | – | – | – | –
16 | CCOC(=O)c1ccc2[nH]c(-c3ccc(S(=O)(=O)F)cc3)cc(=O)c2c1 [MLS000737558] | – | 36.3 | 18.9 | 14.5 | 20.4 | > 57 | 28.2 | – | – | – | –
17 | Nc1c(/C=C2/C=CC(=O)C(O)=C2)c(=O)nc2sc(CC(=O)N3CCCC3)nn12 [MLS001139292] | 1 | > 57 | 10.6 | 6.5 | > 57 | > 57 | – | – | – | – | –
18 | O=S(=O)(Nc1ccccc1)c1cccc2nsnc12 [MLS000999698] | 10 | > 57 | 7.5 | 22.9 | 40.8 | > 57 | – | – | – | – | –
19 | O=C(CSc1nnc(CNC(=O)c2c(F)cccc2F)o1)NCc1ccco1 [MLS001235900] | – | > 57 | 10.6 | 45.7 | 18.2 | > 57 | 12.6 | – | – | – | –
20 | COc1cccc(NC(=O)CN(C)C(=O)c2cc(-c3ccco3)nc3ccccc23)c1 [MLS001156783] | 7.9 | > 57 | 10.6 | 10.2 | > 57 | > 57 | – | – | – | – | –
21 | O=C(COC(=O)Cc1cccc(C(F)(F)F)c1)NCc1ccco1 [MLS002169571] | 7.1 | > 57 | 10.6 | 45.7 | > 57 | > 57 | – | – | – | – | –
22 | Nc1c(S(=O)(=O)O)cc(NC(=O)c2ccccc2)c2c1C(=O)c1ccccc1C2=O [MLS001194971] | 7.9 | > 57 | 21.2 | 18.2 | > 57 | > 57 | – | – | – | – | –
23 | phthalocyanine tetrasulfonate hydrate [NCGC00165867] | – | – | 0.3 | 0.06 | 0.2 | 0.6 | – | complete concentration response curves | 0.631 | 6.2 | –
24 | O=c1nc(N/N=C/c2ccco2)cn[nH]1 [MLS000685729] | – | > 57 | – | 5 | > 57 | > 57 | – | – | – | 28 | –
25 | NC(Cc1ccc(O)c(O)c1)C(=O)O (stereo not drawn) [NCGC00095195] | – | > 57 | 0.3 | 0.1 | > 57 | > 57 | – | – | – | 28.3 | –
26 | Cc1c2c(c(O)c3c(O)cccc13)C(=O)O[C@H]2C1C(N(C)C)C(O)=C(C(N)=O)C(=O)[C@H]1O (stereo partly drawn) [NCGC00163605] | – | > 57 | 2 | 1.6 | 2.2 | – | – | – | – | 2.7 | strong dose-dependent fluorescence signal increase
27 | O=C1C=CC2=C3c4cc(O)c(O)cc4CC3(O)COC2=C1O (stereo not drawn) [NCGC00095664] | – | > 57 | 0.1 | 0.1 | 15.8 | 11.2 | – | – | – | 4.1 | –
28 | O=c1ccc2[n+]([O-])c3ccc([O-])cc3oc-2c1.[Na+] [MLS000778776] | – | 4.5 | 25.1 | 12.4 | 0.02 | > 57 | – | – | – | 5 | –
29 | COc1cc(O)c2c(c1)oc(=O)c1c3cc(O)c(O)cc3oc21 [NCGC00163667] | – | > 57 | 10 | 4.4 | > 57 | 10 | – | – | – | 8.4 | –
